## CN1C(C(=O)Nc2ccccn2)=C(O)c2ccccc2S1(=O)=O
In ethanol, 293.2 K
  solubility (mole fraction): 0.000103
In ethanol, 298.2 K
  solubility (mole fraction): 0.000177
In ethanol, 303.2 K
  solubility (mole fraction): 0.000334
In ethanol, 308.2 K
  solubility (mole fraction): 0.000553
In ethanol, 313.2 K
  solubility (mole fraction): 0.00078
In ethyl acetate, 293.2 K
  solubility (mole fraction): 0.00426
In ethyl acetate, 298.2 K
  solubility (mole fraction): 0.00497
In ethyl acetate, 303.2 K
  solubility (mole fraction): 0.0057
In ethyl acetate, 308.2 K
  solubility (mole fraction): 0.00661
In ethyl acetate, 313.2 K
  solubility (mole fraction): 0.00741

From BigSolDB 2.1
